{
  "source": "ChEMBL document CHEMBL1128049",
  "about": "“5-cyano-1-[3-(N-methylpyrrolidin-2R-ylmethyl)indol-5-yl] benzimidazole (CP-161,242): A potent, centrally active 5-HT1D receptor agonist and benzodiazepine partial agonist” (Bioorg Med Chem Lett, 1995)",
  "key": {"[1]": {"target": "T1, 5-hydroxytryptamine receptor 1A (Rattus norvegicus, UniProt P19327)", "T1 sequence (P19327 whole entry)": "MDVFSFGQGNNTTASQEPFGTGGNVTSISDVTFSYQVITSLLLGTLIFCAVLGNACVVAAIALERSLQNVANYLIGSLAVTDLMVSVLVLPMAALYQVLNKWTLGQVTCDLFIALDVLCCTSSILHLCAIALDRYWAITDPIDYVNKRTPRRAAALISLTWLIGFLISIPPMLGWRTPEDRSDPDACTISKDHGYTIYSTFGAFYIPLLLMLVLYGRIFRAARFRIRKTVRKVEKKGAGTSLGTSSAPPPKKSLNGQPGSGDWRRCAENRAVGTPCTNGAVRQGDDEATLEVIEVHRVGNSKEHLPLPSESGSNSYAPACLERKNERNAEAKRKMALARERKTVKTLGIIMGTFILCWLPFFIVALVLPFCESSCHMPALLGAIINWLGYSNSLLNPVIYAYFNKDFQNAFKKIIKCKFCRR", "assay": "Tested in vitro for receptor binding affinity to 5-hydroxytryptamine 1A receptor in rat cortex using [3H]OH-DPAT radioligand"}, "[2]": {"target": "5-hydroxytryptamine receptor 1D (Cavia porcellus, UniProt Q60484)", "sequence (Q60484 whole entry)": "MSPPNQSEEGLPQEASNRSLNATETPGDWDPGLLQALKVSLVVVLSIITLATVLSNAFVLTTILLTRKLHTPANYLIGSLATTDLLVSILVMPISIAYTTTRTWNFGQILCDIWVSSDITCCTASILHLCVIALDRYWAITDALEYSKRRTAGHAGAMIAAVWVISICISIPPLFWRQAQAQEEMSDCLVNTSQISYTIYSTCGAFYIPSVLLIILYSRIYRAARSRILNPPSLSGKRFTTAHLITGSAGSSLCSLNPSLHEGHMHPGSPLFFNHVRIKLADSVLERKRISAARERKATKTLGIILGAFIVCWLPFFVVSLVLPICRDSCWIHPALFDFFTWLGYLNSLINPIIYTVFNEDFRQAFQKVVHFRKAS", "assay": "Compound was tested for the inhibition of forskolin-stimulated adenylate cyclase at 5-hydroxytryptamine 1D receptor in guinea pig substantia nigra"}, "[3]": {"target": "GABA-A receptor; anion channel", "assay": "In vitro displacement of [3H]flunitrazepam from GABA-A central benzodiazepine receptor of guinea pig cerebellum", "assay_type": "tissue-based, Cavia porcellus"}},
  "note": "pEC50, pIC50: −log10 of the molar value.",
  "data": [
    {"smiles": "CN1CCC[C@@H]1Cc1c[nH]c2ccc(-n3cnc4cc(C#N)ccc43)cc12", "values": [
      {"measurement": "pIC50", "setting": "[1]", "result": 7.70},
      {"measurement": "pEC50", "setting": "[2]", "result": 10.38},
      {"measurement": "pIC50", "setting": "[3]", "result": 8.48}
    ]},
    {"smiles": "CN(C)CCc1c[nH]c2ccc(-n3cnc4cccnc43)cc12", "values": [
      {"measurement": "pIC50", "setting": "[1]", "result": 6.68},
      {"measurement": "pEC50", "setting": "[2]", "result": 7.85},
      {"measurement": "pIC50", "setting": "[3]", "result": 7.05}
    ]},
    {"smiles": "NCCc1c[nH]c2ccc(O)cc12", "note": "[SEROTONIN]", "values": [
      {"measurement": "pEC50", "setting": "[2]", "result": 8.07}
    ]}
  ]
}
